Data reported in patent publication US6737383B1, “Herbicidal oxadiazolidines” (priority 1999, dated 2004).

What was measured:
[1] = test system: pigweed; test: Test B pre/postemergence pigweed; format: in vivo, Amaranthus retroflexus; conditions: for Redroot pigweed plant response rating: Postemergence; for Plant response rating, Redroot pigweed: Preemergence
How it was run: (§1)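 Test chemicals in a non-phytotoxic solvent mixture with surfactant were sprayed preemergence onto planted seeds and postemergence onto plants 2 to 18 cm tall (1- to 4-leaf stage). After twelve to sixteen days in a greenhouse, injury was visually rated against untreated controls from 0 (no effect) to 10 (complete control).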

[2] = test system: bedstraw; test: Test B pre/postemergence bedstraw; format: in vivo, Galium aparine; conditions: Postemergence
How it was run: as §1

[3] = test system: corn; test: Test B pre/postemergence corn; format: in vivo, Zea mays; conditions: for Corn plant response rating: Postemergence; for Plant response rating, Corn: Preemergence
How it was run: as §1

[4] = test system: soybean; test: Test B pre/postemergence soybean; format: in vivo, Glycine max; conditions: for Soybean plant response rating: Postemergence; for Plant response rating, Soybean: Preemergence
How it was run: as §1

[5] = test system: smallflower flatsedge; test: Test B flood test smallflower flatsedge; format: in vivo, Cyperus difformis
How it was run: (§2)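 Flood test on plants grown to the 2-leaf stage; treated plants kept in greenhouse twelve to sixteen days, then visually rated against controls on a 0 (no effect) to 10 (complete control) scale.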

[6] = test system: bamyardgrass; test: Test B flood test barnyardgrass; format: in vivo, Echinochloa crus-galli
How it was run: as §2

[7] = test system: rice; test: Test B flood test rice; format: in vivo, Oryza sativa
How it was run: as §2

[8] = test system: purple nutsedge; test: Test B pre/postemergence purple nutsedge; format: in vivo, Cyperus rotundus; conditions: for Nutsedge plant response rating: Postemergence; for Plant response rating, Nutsedge: Preemergence
How it was run: as §1

[9] = test system: wheat; test: Test B pre/postemergence wheat; format: in vivo, Triticum aestivum; conditions: for Wheat plant response rating: Postemergence; for Plant response rating, Wheat: Preemergence
How it was run: as §1

[10] = test system: blackgrass; test: Test B pre/postemergence blackgrass; format: in vivo, Alopecurus myosuroides; conditions: for Blackgrass plant response rating: Postemergence; for Plant response rating, Blackgrass: Preemergence
How it was run: as §1

[11] = test system: cocklebur; test: Test B pre/postemergence cocklebur; format: in vivo, Xanthium strumarium; conditions: for Cocklebur plant response rating: Postemergence; for Plant response rating, Cocklebur: Preemergence
How it was run: as §1

[12] = test system: wild oat; test: Test B pre/postemergence wild oat; format: in vivo, Avena fatua; conditions: for Wild oats plant response rating: Postemergence; for Plant response rating, Wild oats: Preemergence
How it was run: as §1

[13] = test system: velvetleaf; test: Test B pre/postemergence velvetleaf; format: in vivo, Abutilon theophrasti; conditions: for Velvetleaf plant response rating: Postemergence; for Plant response rating, Velvetleaf: Preemergence
How it was run: as §1

[14] = test system: sugar beet; test: Test B pre/postemergence sugar beet; format: in vivo, Beta vulgaris; conditions: for Sugarbeets plant response rating: Postemergence; for Plant response rating, Sugarbeets: Preemergence
How it was run: as §1

[15] = test system: surinam grass; test: Test B pre/postemergence surinam grass; format: in vivo, Brachiaria decumbens; conditions: for B. signalgrass plant response rating: Postemergence; for Plant response rating, B. signalgrass: Preemergence
How it was run: as §1

[16] = test system: duck salad; test: Test B flood test duck salad; format: in vivo, Heteranthera limosa
How it was run: as §2

[17] = test system: crabgrass; test: Test B pre/postemergence crabgrass; format: in vivo, Digitaria sanguinalis; conditions: for Crabgrass plant response rating: Postemergence; for Plant response rating, Crabgrass: Preemergence
How it was run: as §1

[18] = test system: morningglory; test: Test B pre/postemergence morningglory; format: in vivo, Ipomoea hederacea; conditions: for Morningglory plant response rating: Postemergence; for Plant response rating, Morningglory: Preemergence
How it was run: as §1

[19] = test system: giant foxtail; test: Test B pre/postemergence giant foxtail; format: in vivo, Setaria faberii; conditions: for Giant foxtail plant response rating: Postemergence; for Plant response rating, Giant foxtail: Preemergence
How it was run: as §1

[20] = test system: rape; test: Test B pre/postemergence rape; format: in vivo, Brassica napus; conditions: for Rape plant response rating: Postemergence; for Plant response rating, Rape: Preemergence
How it was run: as §1

[21] = Rate 125 g/ha, scale of 0 to 10 where 0 is no effect and 10 is complete control
[22] = Rate 1000 g/ha, scale 0 to 10 (0 no effect, 10 complete control)
[23] = Rate 500 g/ha, scale of 0 to 10 where 0 is no effect and 10 is complete control
[24] = Rate 250 g/ha, scale 0 to 10, 0 is no effect, 10 is complete control
[25] = Rate 500 g/ha, scale 0 to 10, 0 is no effect, 10 is complete control
[26] = Rate 250 g/ha, scale 0 to 10 (0 no effect, 10 complete control)
[27] = Pre-emergence, Rate 1000 g/ha, scale 0 to 10 (0 no effect, 10 complete control)
[28] = Rate 125 g/ha, under heading Pre-emergence, flood test species, visual evaluation after twelve to sixteen days
[29] = Rate 250 g/ha, Pre-emergence (flood test species), scale 0 to 10, 0 is no effect, 10 is complete control
[30] = Rate 500 g/ha, Pre-emergence section of Table B, 0 to 10 scale (0 no effect, 10 complete control)

COC(=O)C(CCO)n1c(=O)on(C(=O)N(c2ccccc2)C(C)C)c1=O (centres unmarked) [Compound 678]
7: Giant foxtail plant response rating [19, 22]
5: Redroot pigweed plant response rating [1, 22] | Plant response rating, Velvetleaf [13, 22]
6: Blackgrass plant response rating [10, 22] | Crabgrass plant response rating [17, 25] | Morningglory plant response rating [18, 21] | Morningglory plant response rating [18, 24] | Giant foxtail plant response rating [19, 25] | Plant response rating, Giant foxtail [19, 22]
2: Redroot pigweed plant response rating [1, 25] | Soybean plant response rating [4, 24] | Soybean plant response rating [4, 25] | Cocklebur plant response rating [11, 25] | Plant response rating, Velvetleaf [13, 23] | B. signalgrass plant response rating [15, 25] | Rape plant response rating [20, 22]
1: Soybean plant response rating [4, 21] | Plant response rating, Blackgrass [10, 22] | Plant response rating, Crabgrass [17, 23] | Plant response rating, Morningglory [18, 22] | Giant foxtail plant response rating [19, 24]
0: Redroot pigweed plant response rating [1, 21] | Plant response rating, Redroot pigweed [1, 21] | Plant response rating, Redroot pigweed [1, 23] | Redroot pigweed plant response rating [1, 24] | Bedstraw plant response rating [2, 21] | Bedstraw plant response rating [2, 22] | Bedstraw plant response rating [2, 24] | Bedstraw plant response rating [2, 25] | Corn plant response rating [3, 21] | Corn plant response rating [3, 22] | Plant response rating, Corn [3, 21] | Plant response rating, Corn [3, 26] | Plant response rating, Corn [3, 23] | Corn plant response rating [3, 24] | Corn plant response rating [3, 25] | Plant response rating, Corn [3, 22] | Plant response rating, Soybean [4, 21] | Plant response rating, Soybean [4, 23] | Plant response rating, Soybean [4, 22] | S. Flatsedge plant response rating [5, 27] | S. Flatsedge plant response rating (0 to 10 scale, 0 is no effect, 10 is complete control) [5, 28] | S. Flatsedge plant response rating [5, 29] | S. Flatsedge plant response rating [5, 30] | Barnyardgrass plant response rating [6, 27] | Barnyardgrass plant response rating (0 to 10 scale, 0 is no effect, 10 is complete control) [6, 28] | Barnyardgrass plant response rating [6, 29] | Barnyardgrass plant response rating [6, 30] | Rice plant response rating [7, 27] | Rice plant response rating (0 to 10 scale, 0 is no effect, 10 is complete control) [7, 28] | Rice plant response rating [7, 29] | Rice plant response rating [7, 30] | Nutsedge plant response rating [8, 21] | Plant response rating, Nutsedge [8, 21] | Plant response rating, Nutsedge [8, 23] | Nutsedge plant response rating [8, 24] | Nutsedge plant response rating [8, 25] | Plant response rating, Nutsedge [8, 22] | Wheat plant response rating [9, 21] | Plant response rating, Wheat [9, 21] | Plant response rating, Wheat [9, 23] | Wheat plant response rating [9, 24] | Wheat plant response rating [9, 25] | Plant response rating, Wheat [9, 22] | Blackgrass plant response rating [10, 21] | Plant response rating, Blackgrass [10, 21] | Plant response rating, Blackgrass [10, 26] | Plant response rating, Blackgrass [10, 23] | Blackgrass plant response rating [10, 24] | Cocklebur plant response rating [11, 21] | Plant response rating, Cocklebur [11, 21] | Plant response rating, Cocklebur [11, 26] | Plant response rating, Cocklebur [11, 23] | Cocklebur plant response rating [11, 24] | Plant response rating, Cocklebur [11, 22] | Wild oats plant response rating [12, 21] | Plant response rating, Wild oats [12, 21] | Plant response rating, Wild oats [12, 23] | Wild oats plant response rating [12, 24] | Wild oats plant response rating [12, 25] | Plant response rating, Wild oats [12, 22] | Velvetleaf plant response rating [13, 21] | Plant response rating, Velvetleaf [13, 21] | Velvetleaf plant response rating [13, 24] | Sugarbeets plant response rating [14, 21] | Plant response rating, Sugarbeets [14, 21] | Plant response rating, Sugarbeets [14, 23] | Sugarbeets plant response rating [14, 24] | Sugarbeets plant response rating [14, 25] | Plant response rating, Sugarbeets [14, 22] | B. signalgrass plant response rating [15, 21] | Plant response rating, B. signalgrass [15, 21] | Plant response rating, B. signalgrass [15, 26] | Plant response rating, B. signalgrass [15, 23] | B. signalgrass plant response rating [15, 24] | Plant response rating, B. signalgrass [15, 22] | Ducksalad plant response rating [16, 27] | Ducksalad plant response rating (0 to 10 scale, 0 is no effect, 10 is complete control) [16, 28] | Ducksalad plant response rating [16, 29] | Ducksalad plant response rating [16, 30] | Crabgrass plant response rating [17, 21] | Plant response rating, Crabgrass [17, 21] | Plant response rating, Crabgrass [17, 26] | Crabgrass plant response rating [17, 24] | Plant response rating, Morningglory [18, 21] | Plant response rating, Morningglory [18, 23] | Giant foxtail plant response rating [19, 21] | Plant response rating, Giant foxtail [19, 21] | Rape plant response rating [20, 21] | Plant response rating, Rape [20, 21] | Plant response rating, Rape [20, 23] | Rape plant response rating [20, 24] | Rape plant response rating [20, 25] | Plant response rating, Rape [20, 22]
3: Blackgrass plant response rating [10, 25] | Cocklebur plant response rating [11, 22] | Velvetleaf plant response rating [13, 25] | Plant response rating, Crabgrass [17, 22]
8: Morningglory plant response rating [18, 25]
4: Plant response rating, Redroot pigweed [1, 22] | B. signalgrass plant response rating [15, 22] | Plant response rating, Giant foxtail [19, 23]
